Laboratory results from patent US11357749B2, “Methods for treating neutropenia” (Enzychem Lifesciences Corporation, priority 2014, dated 2022).

B1: G-CSL: Granulocyte-colony stimulating factor, glycoprotein that stimulates hematopoietic precursor cells; 0.25 mpk i.p. in mice (protein, UniProt P09920 31-208, looked up)
Granulocyte …: VPLVTVSALPPSLPLPRSFLLKSLEQVRKIQASGSVLLEQLCATYKLCHPEELVLLGHSLGIPKASLSGCSSQALQQTQCLSQLHSGLCLYQGLLQALSGISPALAPTLDLLQLDVANFATTIWQQMENLGVAPTVQPTQSAMPAFTSAFQRRAGGVLAISYLQGFLETARLALHHLA

Tests used:
C3 [1] = experiment: C3 expression (RT-PCR) in IL-4/TNF-α treated HMC-1 cells; type: cell-based, human; details: HMC-1 cells treated with IL-4 and TNF-α; PLAG 0.1 and 1 μg/mL
Protocol: A blood cell line, HMC-1 (human mast cell, American Type Culture Collection, ATCC, Rockville, Md.) is incubated and maintained at 37° C. under 5% CO2 humid conditions. The medium is IMDM (Life Technologies, Karlsruhe, Germany) containing 10% Fetal Calf Serum (FCS, HyClone, Logan, Utah), 2 mM […], 100 μg/ml penicillin, 100 μg/ml streptomycin (Life Technologies). The cultured HMC-1 cells (1×10^6 cell/ml) are pre-treated with 0.1 and 1 μg/mL concentration of PLAG, followed by treating with IL-4 (5 ng) and/or TNF-α (10 ng) to induce cellular activities.
The expressed C3 and its mRNA level change are observed by using RT-PCR (Reverse Transcriptase Polymerase Chain Reaction). The RT-PCR is carried out as follows: the total RNA is separated by the standard protocol and cDNA is synthesized using AccuScript High Fidelity 1st Strand cDNA Synthesis Kit (Stratagene) by the manufacturer's instructions. Two-step RT-PCR reaction is conducted using Oligo-dT primer and reverse transcriptase, pair of primer and Taq polymerase (Takara, Shiga, Japan). […] The product of PCR is separated using 1.5% agarose gel, dyed with ethidium bromide (EtBr), and visualized with Gel Doc 2000 UV trans-illuminator (Bio-Rad Laboratories, Hercules, Calif., USA), and the experimental data is analyzed using Quantity One software (Bio-Rad Laboratories).

C3 [2] = experiment: C3 mRNA (RT-PCR) in HepG2 cells; type: cell-based, human; details: HepG2, 10 and 100 microgram/ml of S6I, compared with PLAG
Protocol: A liver cell line, HepG2 (American Type Culture Collection, ATCC, Rockville, Md.), is incubated and maintained at 37° C., 5% CO2 humid atmosphere in DMEM medium. When HepG2 cells, which are known to produce complement in culture, are treated with PLAG, the activity of complement is reduced effectively, as confirmed by RT-PCR of mRNA. In the RT-PCR, 5×10^5 number of HepG2 cells/ml are distributed into 12 well plates and induced C3 for 12 hours with 10% FCS. Then PLAG is added and further cultured for 2 hours. Cells are harvested and mRNA is isolated and RT-PCR is carried out with specific primer of C3; GAPDH is used as an internal control.

[3] = system: white blood cells and neutrophils; experiment: Cyclophosphamide-induced neutropenia in mice, G-CSF with or without PLAG; type: in vivo; details: mice, cyclophosphamide 100 mpk i.p. ten days; G-CSF 0.25 mpk i.p.; PLAG 25 mpk p.o.
Source text: Mice receive cyclophosphamide (100 mpk, i.p.) for a period of ten days, with or without G-CSF (0.25 mpk, i.p.) or G-CSF (0.25 mpk, i.p.) plus PLAG (25 mpk, p.o.): […]

Molecule | expression of C3 (C3 [1]) | C3 expression (RT-PCR) (C3 [2]) | Neutrophils [3] | White blood cells (WBCs) [3]
NC(=O)c1cnc(NCCc2ccc(O)c(Cl)c2)nc1NCc1ccccc1 [S6I, reference compound] | suppresses expression of C3 | comparable |  | 
B1 |  |  | 4.36 k/μl | 5.37 k/μl
